According to ChEMBL document CHEMBL1128843, “Protein kinase C- inhibitors; structure-activity relationships in bis-indole series” (Bioorg Med Chem Lett, 1995):

Target: Protein kinase C alpha type (Homo sapiens, UniProt P17252)
Experiment: Inhibition of Protein kinase C alpha

IC50 [µM]	SMILES
0.5	COC(=O)c1cc(NC(=O)Cn2cc(C3=C(c4c[nH]c5ccccc45)C(=O)NC3=O)c3ccccc32)cn1C
1	CN(C)CCCNC(=O)c1cc(NC(=O)Cn2cc(C3=C(c4c[nH]c5ccccc45)C(=O)NC3=O)c3ccccc32)cn1C
0.17	COC(=O)c1cc(NC(=O)c2cc(C(=O)c3cc(NC(=O)Cn4cc(C5=C(c6c[nH]c7ccccc67)C(=O)NC5=O)c5ccccc54)cn3C)cn2C)cn1C
0.28	COC(=O)c1cc(NC(=O)c2cc(NC(=O)Cn3cc(C4=C(c5c[nH]c6ccccc56)C(=O)NC4=O)c4ccccc43)cn2C)cn1C
0.63	CN(C)CCCNC(=O)c1cc(NC(=O)c2cc(NC(=O)Cn3cc(C4=C(c5c[nH]c6ccccc56)C(=O)NC4=O)c4ccccc43)cn2C)cn1C
0.01	CN(C)CCCn1cc(C2=C(c3c[nH]c4ccccc34)C(=O)NC2=O)c2ccccc21 [GF-109203]
0.46	CN(C)CCCNC(=O)c1cc(NC(=O)c2cc(NC(=O)c3cc(NC(=O)Cn4cc(C5=C(c6c[nH]c7ccccc67)C(=O)NC5=O)c5ccccc54)cn3C)cn2C)cn1C
